For series [1], the target named is T1, Rat2 fibroblasts transformed with v-Src/Hu c-Src fusion gene (Homo sapiens, UniProt P12931, cells depend on it, form not given).
T1 construct: fused on or other part: The v-Src frame of Rous sarcoma virus: everything outside the catalytic domain, namely the N-terminal unique/SH3/SH2 part; Candidates are Prague C (P00526), then Schmidt-Ruppin A (P00524)
Briefly: Anchorage independent Src-transformed fibroblast proliferation test procedure. In kind it is cell-based, rat. To be noted: for GI50: rat2 fibroblasts transformed with v-src/hu c-src fusion gene, read-out: Src TF prolif IC50. An excerpt: Anchorage Independent Src-transformed Fibroblast Proliferation Test Procedure: Rat2 fibroblasts stably transformed with a plasmid containing CMV promotor controlled v-Src/Hu c-Src fusion gene in which the catalytic domain of human c-Src is inserted in place of the v-Src catalytic domain in the v-Src gene are used for the measurement of src dependent suspension growth.

The target in series [2] is T2, recombinant human MEK 1 (MAPKK) and recombinant human ERK2 (MAPK) (Homo sapiens, UniProt P28482+Q02750).
T2 construct: GST
Briefly: Mitogen Activated Protein Kinase (MAPK) coupled Mek-Erk test procedure. In kind it is biochemical. As for the experimental part: To evaluate inhibitors of the MAP (mitogen activated protein) kinase a two component coupled standard pharmacological test procedure, which measures phosphorylation of a serine/threonine residue in an appropriate sequence in the substrate in the presence and absence of a putative inhibitor, is used. Recombinant human MEK 1 (MAPKK) is first used to activate recombinant human ERK2 (MAPK) and the activated MAPK (ERK) is incubated with substrate (myelin basic protein peptide (MBPP) or Myc peptide) in the presence of ATP, Mg^+2 and radiolabeled ^33P ATP. The phosphorylated peptide is captured on a P 81 phosphocellulose filter (paper filter or embedded in microtiter plate) washed and counted by scintillation methods.
The peptide substrates used in the assay are MBPP, peptide substrate ([…]), or synthetic Myc substrate, ([…].5 TFA). The recombinant enzymes used are prepared as GST fusion proteins of human ERK 2 and human MEK 1. Inhibitor samples are prepared as 10× stocks in 10% DMSO and an appropriate aliquot is used to deliver either 10 ug/ml for a single point screening dose or 100 to 0.0001 uM final concentration for a dose response curve. Final DMSO concentrations are less than or equal to 1%.
The reaction is run as follows in 50 mM Tris kinase buffer, pH 7.4 in a reaction volume of 50 ul. The appropriate volume of kinase buffer and inhibitor sample is added to the tube. Appropriate dilution of enzyme is delivered to give 2–5 ug recombinant MAPK (Erk) per tube. The inhibitor is incubated with MAPK (Erk) for 30 min at 0 deg. C. Recombinant Mek (MAPKK) (0.5–2.5 ug) or fully activated Mek (0.05–0.1 units) is added to activate the Erk and incubated for 30 min at 30° C. Then substrate and γ^33P ATP are added to give a final concentration of 0.5–1 mM MBPP or 250–500 uM Myc; 0.2–0.5 uCi gamma P 33 ATP/tube; 50 μM ATP final concentration. Samples are incubated at 30° C. for 30 minutes and the reaction is stopped by adding 25 μl of ice cold 10% trichloroacetic acid (TCA). After samples are chilled on ice for 30 min. 20 μl of sample is transferred onto P 81 phosphocellulose filter. Filter papers are washed 2 times with a large volume of 1% acetic acid, then 2 times with water. The filters are briefly air dried before addition of scintillant and samples are counted in the appropriate scintillation counter set up for reading ^33P isotope. Samples include a positive control (activated enzyme plus substrate); a no enzyme control; a no substrate control; samples with different concentrations of putative inhibitor, and samples with reference inhibitors (other active compounds or non-specific inhibitors such as staurosporine or K252 B).
The raw data is captured as cpm. Sample replicates are averaged and corrected for background count. Mean cpm data is tabulated by group and % inhibition by a test compound is calculated as (corrected cpm control−corrected. cpm sample/control)×100=% inhibition).

Several values for one entry are separate records, joined by “and”; a condition that tells them apart may be missing. Identical values can stand only once.

T1 sequence (P12931 whole entry, change not shown, the tested form may be a part): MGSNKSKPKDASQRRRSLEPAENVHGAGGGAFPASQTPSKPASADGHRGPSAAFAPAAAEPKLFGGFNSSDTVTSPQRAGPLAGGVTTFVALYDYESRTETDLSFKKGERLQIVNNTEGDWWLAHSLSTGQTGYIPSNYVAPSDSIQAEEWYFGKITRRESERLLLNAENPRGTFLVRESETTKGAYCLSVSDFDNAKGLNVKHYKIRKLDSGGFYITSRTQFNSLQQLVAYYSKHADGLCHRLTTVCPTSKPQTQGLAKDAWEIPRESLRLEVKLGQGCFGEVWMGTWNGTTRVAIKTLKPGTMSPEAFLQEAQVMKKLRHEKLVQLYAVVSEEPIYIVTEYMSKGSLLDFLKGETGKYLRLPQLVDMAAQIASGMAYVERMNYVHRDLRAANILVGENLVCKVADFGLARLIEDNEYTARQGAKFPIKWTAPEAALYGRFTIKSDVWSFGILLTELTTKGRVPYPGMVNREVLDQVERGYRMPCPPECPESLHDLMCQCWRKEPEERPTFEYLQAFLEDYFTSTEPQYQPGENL

Turning to `N#Cc1cnc2c(c1Nc1ccc(Cl)cc1Br)C=C1N=CN=C1C2` [Example 38, 8-(2-Bromo-4-chlorophenylamino)imidazo[4,5-g]quinoline-7-carbonitrile], the melting point – broadly, the temperature, or range, at which the solid turns liquid – lay within 244 to 246 °C. The “Src TF prolif % Inh” value in series [1] (@ dose 10 μM) was determined as 0%. In addition, the “Mek-Erk IC50” value in series [2] came out at 1.3 µM.
The compound `CCOc1cc2cc3c(Nc4cc(OC)c(Cl)cc4C)c(C#N)cnc3cc2cc1OCCN(CC(N)=O)CC(N)=O` [Example 194, 2-(Carbamoylmethyl-{2-[4-(4-chloro-5-methoxy-2-methylphenylamino)-3-cyano-7-ethoxybenzo[g]quinolin-8-yloxy]-ethyl}-amino)-acetamide] displayed a melting point of 168 to 170 °C. Further, in series [1], the GI50 was > 10 µM.
In the case of `COc1cc(Nc2c(C#N)cnc3nc4cc(OCCN5CCOCC5)c(OC)cc4cc23)c(Cl)cc1Cl` [Example 173, 4-(2,4-Dichloro-5-methoxyanilino)-7-methoxy-8-[2-(4-morpholinyl)ethoxy]benzo[b][1,8]naphthyridine-3-carbonitrile], the melting point was 242 to 244 °C (dec.). Moreover, the GI50 in series [1] worked out at 3.74 µM.
Taken in the same sequence, the figures for `COc1cc(Nc2c(C#N)cnc3cc4cc(OC)c(OCCN5CCC(O)CC5)cc4cc23)c(Cl)cc1C` [Example 207, 4-(2-Chloro-5-methoxy-4-methylanilino)-8-methoxy-7-[2-(4-hydroxy-1-piperidinyl)ethoxy]benzo[g]quinoline-3-carbonitrile] were 205 to 235 °C and 0.929 µM.
Compound `COc1ccc(Cl)c(Nc2c(C#N)cnc3c2C=C2N=CN=C2C3)c1` [Example 40, 8-(2-Chloro-5-methoxy-phenylamino)imidazo[4,5-g]quinoline-7-carbonitrile] came in with a melting point of 296 to 298 °C. Besides, the “Src TF prolif % Inh” value in series [1] (@ dose 10 μM) was found to be 0%. In series [2], the “Mek-Erk IC50” value came to 0.5 µM.
Compound `CCOc1cc2cc3c(Nc4cc(OC)c(Cl)cc4C)c(C#N)cnc3cc2cc1OCCN1CCOCC1` [Example 191, 4-(4-Chloro-5-methoxy-2-methylanilino)-7-ethoxy-8-[2-(4-morpholinyl)ethoxy]benzo[g]quinoline-3-carbonitrile] returned a melting point of 201 to 203 °C. Moreover, the GI50 in series [1] was found to be 0.022 µM.
In the case of `COc1cc(Nc2c(C#N)cnc3cc4cc(OC)c(OCCN5CCN(C)CC5)cc4cc23)c(Cl)cc1C` [Example 202, 4-(2-Chloro-5-methoxy-4-methylanilino)-8-methoxy-7-[2-(4-methyl 1-piperazinyl)ethoxy]benzo[g]quinoline-3-carbonitrile], the melting point was 218 to 235 °C and 220 to 227 °C. Moreover, the GI50 in series [1] was determined as 0.068 µM.
As to `COc1cc(Nc2c(C#N)cnc3c2C=C2N=CN=C2C3)cc(OC)c1OC` [Example 42, 8-(3,4,5-Trimethoxyanilino)imidazo[4,5-g]quinoline-7-carbonitrile], the melting point is > 260 °C. Besides, in series [1] (@ dose 0.22 μM), the “Src TF prolif % Inh” value stood at 50%.
With `COc1cc(Nc2c(C#N)cnc3c2C=C2N=CN=C2C3)c(Br)cc1Cl` [Example 39, 8-(2-Bromo-4-chloro-5-methoxyphenylamino)imidazo[4,5-g]quinoline-7-carbonitrile], the melting point was 257 °C (dec.). In addition, the “Src TF prolif % Inh” value in series [1] (@ dose 10 μM) stood at 25%. Besides, the “Mek-Erk IC50” value in series [2] came out at 1.3 µM.
In the case of `N#Cc1cnc2c(c1Nc1ccc(Oc3ccccc3)cc1)C=C1N=CN=C1C2` [Example 44, 8-(4-Phenoxyanilino)imidazo[4,5-g]quinoline-7-carbonitrile], the melting point was > 270 °C. Further, the “Mek-Erk IC50” value in series [2] is 0.03 µM.
Compound `COc1cc2cc3ncc(C#N)c(Nc4ccc(F)c(Cl)c4)c3cc2cc1OCCN1CCOCC1` [Example 212, 4-(3-Chloro-4-fluoroanilino)-8-methoxy-7-[2-(4-morpholinyl)ethoxy]benzo[g]quinoline-3-carbonitrile] showed a melting point of 205 to 210 °C. The GI50 in series [1] is > 10 µM.
In the case of `COc1cc(Nc2c(C#N)cnc3nc4cc(OC)c(OC)cc4cc23)c(Cl)cc1Cl` [Example 165, 4-(2,4-Dichloro-5-methoxyanilino)-7,8-dimethoxybenzo[b][1,8]naphthyridine-3-carbonitrile], the melting point was 297 °C (dec.). For the same compound, the GI50 in series [1] was > 10 µM.
In the case of `N#Cc1cnc2cc3ccccc3cc2c1Nc1ccc(Oc2ccccc2)cc1` [Example 3, 4-(4-Phenoxyanilino)benzo[g]quinoline-3-carbonitrile], the melting point fell in the range of 250 to 251 °C. In series [2], the “Mek-Erk IC50” value came to 0.2 µM.
`COc1cc(Nc2c(C#N)cnc3cc4c(cc23)ncn4CCN2CCOCC2)c(C)cc1Cl` [Example 57, 8-(4-Chloro-5-methoxy-2-methylanilino)-3-[2-(4-morpholinyl)ethyl]-3H-imidazo[4,5-g]quinoline-7-carbonitrile] gave a melting point of 246 to 248 °C. Further, in series [1] (@ dose 10 μM), the “Src TF prolif % Inh” value amounted to 0%.
In turn, `N#Cc1cnc2c(sc3ccccc32)c1Nc1ccc(Oc2ccccc2)cc1` [Example 69, 4-(4-Phenoxyphenylamino)benzo[4,5]thieno[3,2-b]pyridine-3-carbonitrile] had a melting point of 230 to 233 °C. Besides, the “Mek-Erk IC50” value in series [2] is 3 µM.
The compound `CCOc1cc2cc3ncc(C#N)c(Nc4cc(OC)c(Cl)cc4C)c3cc2cc1OCCN1CCOCC1` [Example 190, 4-(4-Chloro-5-methoxy-2-methylanilino)-8-ethoxy-7-[2-(4-morpholinyl)ethoxy]benzo[g]quinoline-3-carbonitrile] gave a melting point of 195 to 196 °C. Moreover, the GI50 in series [1] came out at 0.17 µM.
Take `COc1cc(Nc2c(C#N)cnc3cc4cc(OCCN5CCN(C)CC5)c(OC)cc4cc23)c(Cl)cc1F` [Example 211, 4-(2-Chloro-4-fluoro-5-methoxyanilino)-7-methoxy-8-[2-(4-methyl-1-piperazinyl)ethoxy]benzo[g]quinoline-3-carbonitrile]: the melting point lay in the range of 197 to 205 °C. Further, in series [1], the GI50 was determined as 0.128 µM.
Consider `COc1cc(Nc2c(C#N)cnc3cc4cc(OCCn5ccnn5)c(OC)cc4cc23)c(Cl)cc1Cl` [Example 159, 4-(2,4-Dichloro-5-methoxyphenylamino)-7-methoxy-8-(2-[1,2,3]triazol-1-yl-ethoxy)benzo[g]quinoline-3-carbonitrile], for which the melting point was 245 °C (dec.). Besides, the GI50 in series [1] is 0.073 µM.
Taken in the same sequence, the figures for `COc1cc(Nc2c(C#N)cnc3nc4cc(OCCCl)c(OC)cc4cc23)c(Cl)cc1Cl` [Example 172, 8-(2-Chloroethoxy)-4-(2,4-dichloro-5-methoxyanilino)-7-methoxybenzo[b][1,8]naphthyridine-3-carbonitrile] were 227 to 230 °C (dec.) and 1.87 µM.
The like results for `COc1cc(Nc2c(C#N)cnc3cc4cc(OCCCN5CCOCC5)c(OC)cc4cc23)c(Cl)cc1Cl` [Example 157, 4-(2,4-Dichloro-5-methoxyphenylamino)-7-methoxy-8-(3-morpholin-4-yl-propoxy)benzo[g]quinoline-3-carbonitrile] were, in that order, 205 to 208 °C and 0.038 µM.
The compound `COc1cc(Nc2c(C#N)cnc3cc4cc(OC)c(OCCN5CCN(C)CC5)cc4cc23)c(Cl)cc1F` [Example 201, 4-(2-Chloro-4-fluoro-5-methoxyanilino)-8-methoxy-7-[2-(4-methyl-1-piperazinyl)ethoxy]benzo[g]quinoline-3-carbonitrile] returned a melting point of 170 to 173 °C. For the same compound, the GI50 in series [1] worked out at 0.175 µM.

The record behind these values is patent publication US7105531B2, “Tricyclic protein kinase inhibitors” (WYETH, priority 1999, dated 2006).
